Source: US6599713B1, “Method for quantitating leukocyte count in whole blood sample” (priority 1999, dated 2003)

System: white blood cells contained in the whole blood
Test: Concentration of surfactant and release amount of MPO in whole blood, ELISA (Example 2)
Format: cell-based, human
Conditions: 60 minutes on ice, mean ± SD of 3
Experimental: 10 ml of healthy human whole blood was collected and immediately mixed with 10 mg of EDTA-2K (manufactured and sold by Dojin Laboratories, Japan), and the resultant EDTA-containing whole blood sample was subjected to the below-described various measurements within 1 hour from the blood collection.
500 μl of the blood was put in a 2-ml Eppendorf tube, and 500 μl of an aqueous surfactant solution having a surfactant concentration of 0.1, 0.2, 0.4, 0.6, 1, 2, 4, 10 or 20% (w/v) was added to the tube, and the resultant mixture was stirred for 2 seconds by a Vortex mixer. Subsequently, the mixture was allowed to stand for 60 minutes on ice to thereby lyze the white blood cells. […] After the lysis of the white blood cells, 100 μl of the mixture was taken out and added to 900 μl of a PBS solution containing dissolved therein 1% BSA (trade name: “Sigma fraction V”, manufactured and sold under the brand of SIGMA™, U.S.A.). The resultant mixture was stirred by a Vortex mixer, and then 10 μl of the mixture was taken out and diluted 2,000-fold with 1% BSA/PBS solution. The resultant diluted mixture was subjected to a measurement by ELISA.
The outline of the ELISA is as follows. A 5 μg/ml PBS solution of a rabbit anti-human myeloperoxidase antibody (manufactured and sold by Calbiochem-Novabiochem Corporation, U.S.A.)(hereinafter, frequently referred to as “anti-MPO antibody”) was put into the wells of a Nunc Immuno Plate (manufactured and sold by Nalge Nunc International, Denmark) in an amount of 100 μl per well. The solution in each well was sealed and subjected to a reaction for 18 hours at 4° C. thereby immobilizing the primary antibody. The wells were washed with a washing solution (0.05% Tween™ 20/PBS) and then subjected to blocking for 1 hour at room temperature by using 200 μl of a blocking solution (1% BSA/PBS), and then washed twice with the washing solution. Then, the above-obtained diluted mixture (blood sample which had been treated with a surfactant and then diluted) was put in the wells in an amount of 100 μl per well, and subjected to a reaction for 2 hours at room temperature. Then, the wells were washed 3 times with the washing solution, and a 5 μg/ml solution of an anti-MPO antibody labeled with horseradish peroxidase (hereinafter referred to as “HRP”) was put in the wells in an amount of 100 μl per well, and subjected to a reaction for 1 hour at room temperature. As the above-mentioned HRP-labeled anti-MPO antibody, an anti-human MPO antibody (manufactured and sold by Calbiochem-Novabiochem Corporation, U.S.A.) which had been labeled with HRP Grade IV (manufactured and sold under the brand of SIGMA™, U.S.A.) was employed. The labeling was performed by the method described in Analytical Biochemistry, 132, 68-73 (1983). The wells were washed 5 times with the washing solution, and 100 1 μl of a just-prepared TMB solution (manufactured and sold by Kirkegaad & Perry Laboratories, U.S.A.) was added thereto to effect a color reaction. 2 Minutes after the start of the color reaction, 100 μl of a 1 N sulfuric acid solution (manufactured and sold by Nacalai Tesque, Inc., Japan) was added to the wells to thereby terminate the reaction. Then, the absorbance at 450 nm was measured by means of a plate reader (manufactured and sold by Bio-Rad Laboratories, U.S.A.). The measurement was conducted 3 times, and a mean value±standard deviation was obtained.

In the case of “α-[4-(1,1,3,3,-Tetramethylbutyl)phenyl]-ω-hydroxypoly(oxy-1,2-ethanediyl) [Triton ™ X-100]”, the “Release amount of MPO in whole blood” value (concentration of surfactant 0.05 % (w/v)) is reported as 0.104 ± 0.005 Abs. 450 nm, the “Release amount of MPO in whole blood” value (concentration of surfactant 0.10 % (w/v)) is reported as 0.161 ± 0.009 Abs. 450 nm and the “Release amount of MPO in whole blood” value (concentration of surfactant 0.20 % (w/v)) is reported as 0.202 ± 0.006 Abs. 450 nm. The “Release amount of MPO in whole blood” value (concentration of surfactant 0.30 % (w/v)) was 0.228 ± 0.009 Abs. 450 nm, the “Release amount of MPO in whole blood” value (concentration of surfactant 0.50 % (w/v)) was 0.262 ± 0.005 Abs. 450 nm and the “Release amount of MPO in whole blood” value (concentration of surfactant 1.00 % (w/v)) was 0.245 ± 0.011 Abs. 450 nm. For the same substance, the “Release amount of MPO in whole blood” value (concentration of surfactant 2.00 % (w/v)) was 0.216 ± 0.004 Abs. 450 nm, the “Release amount of MPO in whole blood” value (concentration of surfactant 5.00 % (w/v)) was 0.228 ± 0.007 Abs. 450 nm and the “Release amount of MPO in whole blood” value (concentration of surfactant 10.00 % (w/v)) was 0.227 ± 0.007 Abs. 450 nm.
